Test results reported in ChEMBL document CHEMBL1146401, “A bioactive seco-rosane diterpenoid from Vellozia candida” (1997).

Tests used:
Saccharomyces cerevisiae [1] = assay: DNA damaging activity against DNA repair-deficient Saccharomyces cerevisiae RS 322YK (rad 52Y) mutant assessed as drug level required to produce 12 mm zone of inhibition after 48 hrs; assay type: functional
Saccharomyces cerevisiae [2] = assay: DNA damaging activity against DNA […] Saccharomyces cerevisiae RS 188N (RAD+) mutant assessed as drug level required to produce 12 mm zone of inhibition after 48 hrs; assay type: functional

C=C[C@@]1(C)C[C@@H]2OC(=O)C3=C(CCCC3(C)C)[C@@]2(C)[C@H](C(=O)O)C1 [CANDIDALACTONE]
Activity (Saccharomyces cerevisiae [1]): 87 µg/mL
Activity (Saccharomyces cerevisiae [2]): >200 µg/mL
